Measured values reported in PubChem BioAssay (NCI).
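Tested at 5 concentrations; 48 h exposure; 96-well plates; endpoints linearly interpolated, else capped at highest concentration. Here, GI50 denotes the concentration required for 50% inhibition of growth. TGI marks complete inhibition of growth.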

Tests used:
Experiment in all cases: DTP human tumour cell line panel, 48 h
NCI-H23 lung = test system: NCI-H23 lung
NCI/ADR-RES ovarian = test system: NCI/ADR-RES ovarian
HCT-15 colon = test system: HCT-15 colon
HL-60(TB) leukemia = test system: HL-60(TB) leukemia
MALME-3M melanoma = test system: MALME-3M melanoma
SF-295 CNS = test system: SF-295 CNS
SK-MEL-5 melanoma = test system: SK-MEL-5 melanoma
OVCAR-3 ovarian = test system: OVCAR-3 ovarian
EKVX NSCLC = test system: EKVX NSCLC
HS 578T breast = test system: HS 578T breast
U251 CNS = test system: U251 CNS
RXF 393 renal = test system: RXF 393 renal
BT-549 breast = test system: BT-549 breast
SF-539 CNS = test system: SF-539 CNS
PC-3 prostate = test system: PC-3 prostate
IGROV1 ovarian = test system: IGROV1 ovarian
TK-10 renal = test system: TK-10 renal
SNB-75 CNS = test system: SNB-75 CNS
HOP-62 NSCLC = test system: HOP-62 NSCLC
OVCAR-5 ovarian = test system: OVCAR-5 ovarian
HT29 colon = test system: HT29 colon
CAKI-1 renal = test system: CAKI-1 renal
DU-145 prostate = test system: DU-145 prostate
HCC-2998 colon = test system: HCC-2998 colon
SN12C renal = test system: SN12C renal
NCI-H522 lung = test system: NCI-H522 lung
UACC-62 melanoma = test system: UACC-62 melanoma
T-47D breast = test system: T-47D breast
OVCAR-8 ovarian = test system: OVCAR-8 ovarian
A549 NSCLC = test system: A549 NSCLC
SF-268 CNS = test system: SF-268 CNS
786-0 renal = test system: 786-0 renal
SK-MEL-28 melanoma = test system: SK-MEL-28 melanoma
M14 melanoma = test system: M14 melanoma
RPMI-8226 leukemia = test system: RPMI-8226 leukemia
MDA-MB-435 = test system: MDA-MB-435
MDA-MB-231 breast = test system: MDA-MB-231 breast
CCRF-CEM leukemia = test system: CCRF-CEM leukemia
OVCAR-4 ovarian = test system: OVCAR-4 ovarian
KM12 colon = test system: KM12 colon
LOX IMVI melanoma = test system: LOX IMVI melanoma
COLO 205 colon = test system: COLO 205 colon
MOLT-4 leukemia = test system: MOLT-4 leukemia
NCI-H226 lung = test system: NCI-H226 lung
SK-MEL-2 melanoma = test system: SK-MEL-2 melanoma
A498 renal = test system: A498 renal
SNB-19 CNS = test system: SNB-19 CNS
UACC-257 melanoma = test system: UACC-257 melanoma
K-562 leukemia = test system: K-562 leukemia
ACHN renal = test system: ACHN renal
UO-31 renal = test system: UO-31 renal
MCF7 breast = test system: MCF7 breast
SR leukemia = test system: SR leukemia
HCT-116 colon = test system: HCT-116 colon
NCI-H460 lung = test system: NCI-H460 lung
SW-620 colon = test system: SW-620 colon
SK-OV-3 ovarian = test system: SK-OV-3 ovarian

Compound `CCCCCN(CCCCC)CC(O)c1cc(Cl)ccc1OC` (centres undefined) has a GI50 (NCI-H23 lung) of 5.79 µM, a TGI (NCI-H23 lung) of 20.9 µM and a GI50 (NCI/ADR-RES ovarian) of 9.26 µM. For the same compound, the TGI (NCI/ADR-RES ovarian) was 25.9 µM, the GI50 (HCT-15 colon) was 6.32 µM and the TGI (HCT-15 colon) was 21.5 µM. For the same compound, the GI50 (HL-60(TB) leukemia) was 5.05 µM, the TGI (HL-60(TB) leukemia) was 25.9 µM and the GI50 (MALME-3M melanoma) was 6.29 µM. It also gave a TGI (MALME-3M melanoma) of 21.3 µM, a GI50 (SF-295 CNS) of 1.38 µM and a TGI (SF-295 CNS) of 12.6 µM. It also gave a GI50 (SK-MEL-5 melanoma) of 5.75 µM, a TGI (SK-MEL-5 melanoma) of 18.5 µM and a GI50 (OVCAR-3 ovarian) of 10.8 µM. The TGI (OVCAR-3 ovarian) was 23.6 µM, the GI50 (EKVX NSCLC) was 6.39 µM and the TGI (EKVX NSCLC) was 22.3 µM. It also gave a GI50 (HS 578T breast) of 12.9 µM, a TGI (HS 578T breast) of 33.6 µM and a GI50 (U251 CNS) of 10.7 µM. For the same compound, the TGI (U251 CNS) was 25.5 µM, the GI50 (RXF 393 renal) was 2.58 µM and the TGI (RXF 393 renal) was 7.87 µM. For the same compound, the GI50 (BT-549 breast) was 15.9 µM, the TGI (BT-549 breast) was 38.3 µM and the GI50 (SF-539 CNS) was 10.8 µM. It also gave a TGI (SF-539 CNS) of 24.3 µM, a GI50 (PC-3 prostate) of 11.3 µM and a TGI (PC-3 prostate) of 26.8 µM. For the same compound, the GI50 (IGROV1 ovarian) was 3 µM, the TGI (IGROV1 ovarian) was 15.1 µM and the GI50 (TK-10 renal) was 10.9 µM. It also gave a TGI (TK-10 renal) of 24.1 µM, a GI50 (SNB-75 CNS) of 0.197 µM and a TGI (SNB-75 CNS) of 5.83 µM. For the same compound, the GI50 (HOP-62 NSCLC) was 12 µM, the TGI (HOP-62 NSCLC) was 26.7 µM and the GI50 (OVCAR-5 ovarian) was 10.4 µM. The TGI (OVCAR-5 ovarian) was 23.8 µM, the GI50 (HT29 colon) was 0.683 µM and the TGI (HT29 colon) was 12 µM. For the same compound, the GI50 (CAKI-1 renal) was 2.81 µM, the TGI (CAKI-1 renal) was 16.6 µM and the GI50 (DU-145 prostate) was 10.8 µM. For the same compound, the TGI (DU-145 prostate) was 23.5 µM, the GI50 (HCC-2998 colon) was 5.72 µM and the TGI (HCC-2998 colon) was 17.8 µM. The GI50 (SN12C renal) was 10.5 µM, the TGI (SN12C renal) was 28.8 µM and the GI50 (NCI-H522 lung) was 1.98 µM. For the same compound, the TGI (NCI-H522 lung) was 15.2 µM, the GI50 (UACC-62 melanoma) was 11.1 µM and the TGI (UACC-62 melanoma) was 25.4 µM. For the same compound, the GI50 (T-47D breast) was 11.5 µM, the TGI (T-47D breast) was 26.9 µM and the GI50 (OVCAR-8 ovarian) was 11.4 µM. For the same compound, the TGI (OVCAR-8 ovarian) was 25.7 µM, the GI50 (A549 NSCLC) was 6.61 µM and the TGI (A549 NSCLC) was 24.7 µM. The GI50 (SF-268 CNS) was 11.4 µM, the TGI (SF-268 CNS) was 24.4 µM and the GI50 (786-0 renal) was 13 µM. The TGI (786-0 renal) was 27.4 µM, the GI50 (SK-MEL-28 melanoma) was 1.63 µM and the TGI (SK-MEL-28 melanoma) was 3.51 µM. It also gave a GI50 (M14 melanoma) of 8.81 µM, a TGI (M14 melanoma) of 22.6 µM and a GI50 (RPMI-8226 leukemia) of 4.81 µM. For the same compound, the TGI (RPMI-8226 leukemia) was 22.7 µM, the GI50 (MDA-MB-435) was 8.53 µM and the TGI (MDA-MB-435) was 21.1 µM. It also gave a GI50 (MDA-MB-231 breast) of 5.38 µM, a TGI (MDA-MB-231 breast) of 20 µM and a GI50 (CCRF-CEM leukemia) of 11.3 µM. The TGI (CCRF-CEM leukemia) was 36 µM, the GI50 (OVCAR-4 ovarian) was 3.17 µM and the TGI (OVCAR-4 ovarian) was 16 µM. For the same compound, the GI50 (KM12 colon) was 7.35 µM, the TGI (KM12 colon) was 21.3 µM and the GI50 (LOX IMVI melanoma) was 5.23 µM. It also gave a TGI (LOX IMVI melanoma) of 18.4 µM, a GI50 (COLO 205 colon) of 5.11 µM and a TGI (COLO 205 colon) of 18.6 µM. For the same compound, the GI50 (MOLT-4 leukemia) was 6.94 µM, the TGI (MOLT-4 leukemia) was 28.7 µM and the GI50 (NCI-H226 lung) was 9.79 µM. For the same compound, the TGI (NCI-H226 lung) was 23.6 µM, the GI50 (SK-MEL-2 melanoma) was 3.22 µM and the TGI (SK-MEL-2 melanoma) was 14.2 µM. It also gave a GI50 (A498 renal) of 11.6 µM, a TGI (A498 renal) of 29.3 µM and a GI50 (SNB-19 CNS) of 14.6 µM. For the same compound, the TGI (SNB-19 CNS) was 50.1 µM, the GI50 (UACC-257 melanoma) was 4.98 µM and the TGI (UACC-257 melanoma) was 18.7 µM. For the same compound, the GI50 (K-562 leukemia) was 3.81 µM, the TGI (K-562 leukemia) was 20.3 µM and the GI50 (ACHN renal) was 10.5 µM. For the same compound, the TGI (ACHN renal) was 24.9 µM, the GI50 (UO-31 renal) was 3.37 µM and the TGI (UO-31 renal) was 15.5 µM. It also gave a GI50 (MCF7 breast) of 0.528 µM, a TGI (MCF7 breast) of 2.66 µM and a GI50 (SR leukemia) of 4.78 µM. The TGI (SR leukemia) was 30.5 µM, the GI50 (HCT-116 colon) was 2.49 µM and the TGI (HCT-116 colon) was 12.6 µM. For the same compound, the GI50 (NCI-H460 lung) was 4.7 µM, the TGI (NCI-H460 lung) was 18 µM and the GI50 (SW-620 colon) was 4.66 µM. It also gave a TGI (SW-620 colon) of 18.2 µM, a GI50 (SK-OV-3 ovarian) of 12.8 µM and a TGI (SK-OV-3 ovarian) of 29.5 µM.
